According to patent US7226746B1, “Method for screening for anti-amyloidogenic properties and method for treatment of neurodegenerative disease” (The Regents of the University of California, priority 1998, dated 2007):
One block for each molecule: values may come before it.

Key:
β-synuclein δ2 = molecular target: T1, β-synuclein δ2 (Homo sapiens, UniProt Q16143, A63V/F71V/H65N/INS70[…]/L66V/S64T/S72E); experiment: Inhibition of high temperature aggregation by Congo red (β-synuclein δ2); format: biochemical; conditions: 20 μM protein, pH 6.9, 65° C., 20 hours, micromolar concentrations of Congo red
T1 construct: 6xHis (cleaved yes); made in house; host or cells: E. coli
Procedure: (§1) In order to test the susceptibility of the newly constructed β-synuclein mutants to aggregation, an aggregation assay can be performed. To do this, 10–20 μM of each of the mutant proteins are incubated in a total volume of 20 μl with a final concentration of 100 mM sodium acetate, pH 6.9. Aggregation can be induced under a variety of conditions, for instance, low pH and high temperature. SDS-PAGE analysis/immunoblotting or Thioflavine-S staining provides means for evaluating the reacted samples, the methods of which are described above and well known to those in the art.
(§2) Since previous studies have shown that the aggregation of amyloidogenic proteins were to some extent inhibited by Congo red, increasing concentrations of Congo red were added in the present aggregation system. […] As is shown in FIG. 5, the monomer bands were slightly but surely stabilized by treatment with micromolar concentrations of Congo red, which is consistent with other reported studies.

NACP/α-synuclein [1] = molecular target: T2, NACP/α-synuclein (Homo sapiens, UniProt P37840); experiment: Inhibition of high temperature aggregation by Congo red (NACP/α-synuclein); format: biochemical; parameters: which encodes full length NACP/α-synuclein 140; 6xHis (cleaved yes); made in house; host or cells: E. coli; conditions: 20 μM protein, pH 6.9, 65° C., 20 hours, micromolar concentrations of Congo red
Procedure: as §1, §2

[2] = Thioflavine-S staining of ferric ion-induced in vitro aggregates; format: physicochemical, human
Procedure: In order to determine if iron-induced NACP/α-synuclein aggregates display amyloid-like characteristics, Thioflavine-S staining is performed.
In order to determine whether the ferric-ion induced in vitro aggregates of NACP/α-synuclein display amyloid-like characteristics, Thioflavine-S staining experiments were performed.

[3] = Aggregation assay under high temperature conditions, SDS-PAGE analysis; format: physicochemical, human; conditions: 20 μM protein, 100 mM sodium acetate, pH 6.9, 65° C.
Procedure: as §1
Recombinant proteins were produced using a standard E. coli system and high purity products were generated using SDS-PAGE analysis, seen as FIG. 4.
After 8 hours incubation, the bands corresponding to possible dimers became visible and, after 20 hours incubation, bands corresponding to dimers and higher smears in both the separating and stacking portions of the gels was observed.

[4] = Thioflavine-S staining of aggregates formed at pH 6.9, 65 C; format: physicochemical, human; conditions: pH 6.9, 65 C conditions
Procedure: In order to determine whether the aggregates resulting from aggregation reactions of PROEX-1-β-synuclein 61 and PROEX-1-β-synuclein δ2 display amyloid-like characteristics, 10 μl aliquots of the protein preparations are obtained using the above-described procedures are pipetted onto glass slides and stained with Thioflavine-S. The results are visually analyzed using a confocal microscope, the method of which is well known to those in the art.

[5] = Specificity of ferric ion-induced aggregation: recombinant synuclein proteins treated with ferric ion, immunoblot; format: physicochemical, human; conditions: 100 μM ferric ion
Procedure: (§3) The cells are harvested and re-suspended in 50 mM Tris-HCl, pH 8.5, containing protease inhibitors. Following sonication and centrifugation of the re-suspension, the supernatant is applied to a Ni-NTA column and eluted with 20 mM Tris-HCl, pH 8.5, containing 100 mM KCl, 100 mM imidazole, […] v/v glycerol and 10 mM β-mercaptoethanol. The eluted fusion protein is dialyzed against 50 mM Tris-HCl, pH 8.5, cleaved with recombinant TEV protease and again applied to a Ni-NTA column. The recombinant NACP/α-synuclein is isolated in the flow through fractions, pooled and stored at −20° C. until use.
(§4) Prior to experimentation, each of the recombinant proteins need to be desalted by way of passage through PD 10 columns (Pharmacia, Piscataway, N.J.) in water and then adjusted to a final concentration of 5 μM. NACP/α-synuclein protein (1 μl) is incubated in a total volume of 20 μl of buffer containing 20 mM Tris-HCl, pH 7.4. To perform the immuno-blotting analysis, each sample is resolved by SDS-PAGE (15%) and blotted onto nitrocellulose membrane (Schleicher & Schuell, Keene, N.H.). The blotted membrane is blocked with Tris-Buffered saline (TBS; 20 mM Tris-HCl, pH 7.5 and 150 mM NaCl) containing 3% BSA, followed by incubation with anti-C-terminal rabbit polyclonal antibody (1:1000) in TBS containing 1% BSA. […]

NACP/α-synuclein [6] = molecular target: T2, NACP/α-synuclein; experiment: Iron-catalyzed oxidative reaction (metal ion plus hydrogen peroxide) aggregation of NACP/α-synuclein, immunoblotting; format: biochemical; parameters: which encodes full length NACP/α-synuclein 140; 6xHis (cleaved yes); made in house; host or cells: E. coli DH5α
Procedure: Prior to experimentation, each of the recombinant proteins need to be desalted by way of passage through PD 10 columns (Pharmacia, Piscataway, N.J.) in water and then adjusted to a final concentration of 5 μM. NACP/α-synuclein protein (1 μl) is incubated in a total volume of 20 μl of buffer containing 20 mM Tris-HCl, pH 7.4. To perform the immuno-blotting analysis, each sample is resolved by SDS-PAGE (15%) and blotted onto nitrocellulose membrane (Schleicher & Schuell, Keene, N.H.). The blotted membrane is blocked with Tris-Buffered saline (TBS; 20 mM Tris-HCl, pH 7.5 and 150 mM NaCl) containing 3% BSA, followed by incubation with anti-C-terminal rabbit polyclonal antibody (1:1000) in TBS containing 1% BSA. The blocked membrane is then incubated with peroxidase-labeled anti-rabbit IgG (Amersham) (1:1000) and visualized using the ECL immuno-blotting system (Amersham, Cleveland, Ohio), the use of which is well known to those in the art.
It was hypothesized that aggregation of NACP/α-synuclein might be linked to the iron-catalyzed oxidative reactions, represented in FIG. 2a, illustrating the hypothesis for the association of NACP/α-synuclein aggregation with iron-catalyzed oxidative reaction (Harber-Weiss reaction). In order to determine if an iron-catalyzed oxidative reaction promotes aggregation of NACP/α-synuclein, the human recombinant form of this molecule was incubated with ferrous ion (100 μM) and hydrogen peroxide. […] Ferrous ion was not included in lanes 8–10. The position of molecular weight markers (kD) are indicated on left). […] Other transition metals were also examined for their effect on NACP/α-synuclein aggregation.

[7] = molecular target: T3, human recombinant NACP/α-synuclein 140 (Homo sapiens, UniProt P37840); experiment: Ferric ion-induced aggregation of NACP/α-synuclein 140, immunoblotting analysis; format: biochemical; conditions: 4 hour incubation, pH 7.4, 37° C.; 0-1 mM ferric ion, concentration dependent
T3 construct: which encodes full length NACP/α-synuclein 140; 6xHis (cleaved yes); made in house; host or cells: E. coli DH5α
Procedure: as §3, §4

Molecule: Nc1c(/N=N/c2ccc(-c3ccc(/N=N/c4cc(S(=O)(=O)O)c5ccccc5c4N)cc3)cc2)cc(S(=O)(=O)O)c2ccccc12 [Congo red]
- inhibition of aggregation of β-synuclein δ2 (β-synuclein δ2): partly inhibited aggregation
- inhibition of aggregation of NACP/α-synuclein (NACP/α-synuclein [1]): partly inhibited aggregation

Molecule: β-synuclein: human recombinant NACP/α-synuclein-related protein with a partially incomplete NAC domain; non-amyloidogenic
- Thioflavine-S reactivity of ferric ion-induced aggregates [2]: not
- aggregation of the protein under high temperature conditions (SDS-PAGE) [3]: showed no aggregation
- Thioflavine-S staining of the protein [4]: negative result
- aggregation of the protein on treatment with ferric ion [5]: not aggregated

Molecule: OO [hydrogen peroxide]
- aggregation of NACP/α-synuclein with hydrogen peroxide in the presence of ferrous ion (NACP/α-synuclein [6]; NACP/α-synuclein 1 μM, ferrous ion 100 μM, 1 nM-100 μM H2O2): dose-dependent aggregation
- aggregation of NACP/α-synuclein with hydrogen peroxide alone (NACP/α-synuclein [6]; no ferrous ion, 10-100 μM H2O2): no remarkable changes

- aggregation of NACP/α-synuclein by other transition metals in the presence of hydrogen peroxide (NACP/α-synuclein [6]; in the presence of hydrogen peroxide): failed to induce the aggregation
Molecule: manganese

- aggregation of NACP/α-synuclein 140 induced by the ion [7]: induced aggregation
Molecule: [Fe+3] [ferric ion]
